“Also recorded” adds a separate entry of the source.
How the values were obtained:
[1] = system: (CD44high/CD24low) cancer stem cells; settings: mixed population of cancer stem cells and cancer cells; Gupta et al. 2009; cited from earlier work
[2] = system: (CD44low/CD24high) cancer cells; settings: mixed population of cancer stem cells and cancer cells; Gupta et al. 2009; cited from earlier work
[3] = system: CSC-10A-D9 induced by differentiation from CSC-10A (induced cancer stem cells); test: Induced differentiation of CSC-10A by addition of salinomycin (phase-contrast morphology, alkaline phosphatase staining, Western blot); format: cell-based, human
Description: Also, these cells were stained with an undifferentiation marker alkaline phosphatase (ALP). […] Next, these cells were lysed and subjected to Western blot.
Induced Differentiation Method for CSC-10A (Addition of Salinomycin)
CSC-10A was seeded over 10-cm dishes. After 24 hours, salinomycin was added to give a final concentration of […] and the culture was continued at 37° C. Four days after the addition of salinomycin, the cells were stained with alkaline phosphatase. The cells were recovered four days after the addition of salinomycin and subjected to Western blot which confirmed the expression of vimentin, β-catenin, and tubulin (control).

[4] = Western blot, 10 μM salinomycin, 4 days after addition

Row | Compound | Effect on (CD44high/CD24low) cancer stem cells [1] | Effect on (CD44low/CD24high) cancer cells [2] | Staining with undifferentiation marker alkaline phosphatase (ALP-positive cells) ([3]; 10 μM salinomycin vs DMSO, 4 days after addition) | Size of each individual cell ([3]; 10 μM salinomycin vs DMSO, 4 days later) | Cell differentiation / morphology under a phase-contrast microscope ([3]; 10 μM salinomycin vs DMSO, observed 4 days later) | Expression of differentiation (epithelial) marker beta-catenin [3, 4] | Expression of stem cell (mesenchymal) marker vimentin [3, 4]
1 | CC(=O)O[C@H]1C(=O)[C@@]2(C)[C@H]([C@H](OC(=O)c3ccccc3)[C@]3(O)C[C@H](OC(=O)[C@H](O)[C@@H](NC(=O)c4ccccc4)c4ccccc4)C(C)=C1C3(C)C)[C@]1(OC(C)=O)CO[C@@H]1C[C@@H]2O [Taxol] | left intact | only inhibits the growth of cancer cells |  |  |  |  | 
2 | CC[C@@H](C(=O)[C@@H](C)[C@@H](O)[C@H](C)[C@@H]1O[C@@H]([C@@H](CC)C(=O)O)CC[C@@H]1C)[C@H]1O[C@]2(C=C[C@@H](O)[C@]3(CC[C@@](C)([C@H]4CC[C@](O)(CC)[C@H](C)O4)O3)O2)[C@H](C)C[C@@H]1C [salinomycin] | kills only cancer stem cells | leaving cancer cells intact | significant decrease in ALP-positive cells; also recorded: decreased | increased | differentiated into epithelial-like cells | increase | decrease
